Experimental data from patent US20240181081A1, “Compositions and Methods for Treatment of Myotonic Dystrophy Type 1 with CRISPR/SACAS9” (Vertex Pharmaceuticals Incorporated, priority 2021, published 2024).
Several values for one entry are separate records, joined by “and”; a condition that tells them apart may be missing. Identical values can stand only once.

What was measured:
[1] = test system: CUG RNA foci in primary DM1 patient myoblasts; test: DOUBLE-cut screening: FISH staining of RNA foci in primary DM1 patient myoblasts; type: cell-based, human; conditions: sgRNA pair RNP, 72 hrs post nucleofection; for % of CUG foci free nuclei (DNA-PKi): 3 μM Compound 6 for 48 hrs; for % of CUG foci free nuclei (Vehicle): DMSO 48 hrs
Summary of the method: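 Primary DM1 patient myoblasts nucleofected with paired upstream/downstream sgRNA–SaCas9 RNPs (20 pmol protein, 60 pmol sgRNA each), then treated 48 hrs with DMSO or 3 μM DNA-PK inhibitor. At 72 hrs post nucleofection, CUG foci stained by Cy3-PNA(CAG)5 FISH with MBNL1 co-staining and quantified by high-content confocal imaging.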

[2] = test system: CTG repeat expansion in the 3′ UTR of human DMPK gene; test: DOUBLE-cut screening: CTG repeat excision by loss-of-signal ddPCR in primary DM1 patient myoblasts; type: cell-based; conditions: sgRNA pair RNP, mean of upstream and downstream ddPCR assays; for % of CTG repeat excision efficiency by ddPCR (DNA-PKi): 3 μM Compound 6 for 48 hrs; for % of CTG repeat excision efficiency by ddPCR (Vehicle): DMSO 48 hrs
Summary of the method: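 Paired upstream/downstream sgRNAs, each as RNP with recombinant SaCas9 (20 pmol protein:60 pmol sgRNA), mixed 1:1 and nucleofected into primary DM1 myoblasts; cells then given DMSO or 3 μM DNA-PKi Compound 6 for 48 hrs. Genomic DNA taken 72 hrs post-nucleofection; excision is mean of upstream and downstream loss-of-signal ddPCR, normalized to DMPK exon 1 reference.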

| Substance | % of CUG foci free nuclei (DNA-PKi) [1] | % of CUG foci free nuclei (Vehicle) [1] | % of CTG repeat excision efficiency by ddPCR (DNA-PKi) [2] | % of CTG repeat excision efficiency by ddPCR (Vehicle) [2] |
| --- | --- | --- | --- | --- |
| SaU4 + SaD13: SaCas9 sgRNA pair, SEQ ID NOs: 4 and 21 (guide 1 CCAGTTCACAACCGCTCCGAGC; guide 2 CCCAACAACCCCAATCCACGTT; listed as DNA, chemistry not fully specified) | 73.71% | 43.83% | 54.46% | 32.38% |
| SaU4 + SaD15: SaCas9 sgRNA pair, SEQ ID NOs: 4 and 23 (guide 1 CCAGTTCACAACCGCTCCGAGC; guide 2 GACAATAAATACCGAGGAATGT; listed as DNA, chemistry not fully specified) | 85.73% | 79.84% | 58.99% | 39.70% |
| SaU4 + SaD17: SaCas9 sgRNA pair, SEQ ID NOs: 4 and 25 (guide 1 CCAGTTCACAACCGCTCCGAGC; guide 2 TTTATTCGCGAGGGTCGGGGGT; listed as DNA, chemistry not fully specified) | 79.31% | 60.96% | 55.51% | 35.01% |
| SaU4 + SaD18: SaCas9 sgRNA pair, SEQ ID NOs: 4 and 26 (guide 1 CCAGTTCACAACCGCTCCGAGC; guide 2 GGGCCTTTTATTCGCGAGGGTC; listed as DNA, chemistry not fully specified) | 69.76% | 36.81% | 45.55% | 26.25% |
| SaU4 + SaD19: SaCas9 sgRNA pair, SEQ ID NOs: 4 and 27 (guide 1 CCAGTTCACAACCGCTCCGAGC; guide 2 AGGACCCCCACCCCCGACCCTC; listed as DNA, chemistry not fully specified) | 80.80% | 67.92% | 50.21% | 36.41% |
| SaU4 + SaD20: SaCas9 sgRNA pair, SEQ ID NOs: 4 and 28; printed twice in Table 4 (guide 1 CCAGTTCACAACCGCTCCGAGC; guide 2 AGATGGAGGGCCTTTTATTCGC; listed as DNA, chemistry not fully specified) | 84.77% and 83.56% | 59.76% and 81.47% | 65.25% and 59.19% | 53.12% and 52.49% |
| SaU7 + SaD4: SaCas9 sgRNA pair, SEQ ID NOs: 7 and 12 (guide 1 CGCGGCCGGCGAACGGGGCTCG; guide 2 ACTTTGCGAACCAACGATAGGT; listed as DNA, chemistry not fully specified) | 87.34% | 74.84% | 73.99% | 57.96% |
| SaU7 + SaD5: SaCas9 sgRNA pair, SEQ ID NOs: 7 and 13 (guide 1 CGCGGCCGGCGAACGGGGCTCG; guide 2 GGGTTTGGCAAAAGCAAATTTC; listed as DNA, chemistry not fully specified) | 82.27% | 64.24% | 69.71% | 50.76% |
| SaU7 + SaD6: SaCas9 sgRNA pair, SEQ ID NOs: 7 and 14 (guide 1 CGCGGCCGGCGAACGGGGCTCG; guide 2 CTTTTGCCAAACCCGCTTTTTC; listed as DNA, chemistry not fully specified) | 67.73% | 24.89% | 55.71% | 22.54% |
| SaU7 + SaD7: SaCas9 sgRNA pair, SEQ ID NOs: 7 and 15 (guide 1 CGCGGCCGGCGAACGGGGCTCG; guide 2 GGGGCGCGGGATCCCCGAAAAA; listed as DNA, chemistry not fully specified) | 85.03% | 41.68% | 64.88% | 32.55% |
| SaU7 + SaD12: SaCas9 sgRNA pair, SEQ ID NOs: 7 and 20 (guide 1 CGCGGCCGGCGAACGGGGCTCG; guide 2 TCAGTGCATCCAAAACGTGGAT; listed as DNA, chemistry not fully specified) | 86.06% | 66.41% | 62.84% | 39.71% |
| SaU7 + SaD15: SaCas9 sgRNA pair, SEQ ID NOs: 7 and 23 (guide 1 CGCGGCCGGCGAACGGGGCTCG; guide 2 GACAATAAATACCGAGGAATGT; listed as DNA, chemistry not fully specified) | 89.69% | 64.62% | 66.66% | 36.65% |
| SaU7 + SaD17: SaCas9 sgRNA pair, SEQ ID NOs: 7 and 25 (guide 1 CGCGGCCGGCGAACGGGGCTCG; guide 2 TTTATTCGCGAGGGTCGGGGGT; listed as DNA, chemistry not fully specified) | 75.53% | 36.12% | 55.97% | 27.41% |
| SaU7 + SaD18: SaCas9 sgRNA pair, SEQ ID NOs: 7 and 26 (guide 1 CGCGGCCGGCGAACGGGGCTCG; guide 2 GGGCCTTTTATTCGCGAGGGTC; listed as DNA, chemistry not fully specified) | 73.07% | 23.22% | 48.08% | 19.71% |
| SaU7 + SaD19: SaCas9 sgRNA pair, SEQ ID NOs: 7 and 27 (guide 1 CGCGGCCGGCGAACGGGGCTCG; guide 2 AGGACCCCCACCCCCGACCCTC; listed as DNA, chemistry not fully specified) | 81.47% | 42.75% | 56.22% | 28.45% |
| SaU7 +SaD3: SaCas9 sgRNA pair, SEQ ID NOs: 7 and 11 (guide 1 CGCGGCCGGCGAACGGGGCTCG; guide 2 CAACGATAGGTGGGGGTGCGTG; listed as DNA, chemistry not fully specified) | 80.45% | 39.24% | 61.82% | 41.26% |
| SaU7 +SaD11: SaCas9 sgRNA pair, SEQ ID NOs: 7 and 19 (guide 1 CGCGGCCGGCGAACGGGGCTCG; guide 2 CAAAACGTGGATTGGGGTTGTT; listed as DNA, chemistry not fully specified) | 73.38% | 36.96% | 51.90% | 25.10% |
| SaU7 +SaD13: SaCas9 sgRNA pair, SEQ ID NOs: 7 and 21 (guide 1 CGCGGCCGGCGAACGGGGCTCG; guide 2 CCCAACAACCCCAATCCACGTT; listed as DNA, chemistry not fully specified) | 78.52% | 28.69% | 55.97% | 25.62% |
| SaU7 +SaD20: SaCas9 sgRNA pair, SEQ ID NOs: 7 and 28 (guide 1 CGCGGCCGGCGAACGGGGCTCG; guide 2 AGATGGAGGGCCTTTTATTCGC; listed as DNA, chemistry not fully specified) | 83.24% | 63.33% | 67.93% | 39.72% |
